Publication PMC5218480 (PLoS ONE, 2017)

Test system: MV-4-11 cells
Assay: Gene expression microarray analysis (Affymetrix PrimeView) and GSEA
Type: cell-based, human
Set-up: RFU PODN (11730768_x_at) / Fold change /veh PODN (11730768_x_at) / RFU LINC00158 (11744669_a_at) / Fold change /veh LINC00158 (11744669_a_at) / RFU DUSP10 (11751237_a_at) / Fold change /veh DUSP10 (11751237_a_at) / RFU ID3 (11757404_x_at) / Fold change /veh ID3 (11757404_x_at) / RFU PLEKHG5 (11737974_s_at) / Fold change /veh PLEKHG5 (11737974_s_at) / RFU LRRC4B (11730491_at) / Fold change /veh LRRC4B (11730491_at) / RFU GIMAP4 (11747438_a_at) / Fold change /veh GIMAP4 (11747438_a_at) / RFU KRT8 (11758183_x_at) / Fold change /veh KRT8 (11758183_x_at) / RFU CNN1 (11734310_a_at) / Fold change /veh CNN1 (11734310_a_at) / RFU VPS37D (11726825_at) / Fold change /veh VPS37D (11726825_at) / RFU C10orf10 (11716522_x_at) / Fold change /veh C10orf10 (11716522_x_at) / RFU KIR2DL2 /// KIR2DL4 /// KIR2DL5A /// KIR2DL5B /// KIR2DS1 /// KIR2DS2 /// KIR2DS3 /// KIR2DS4 /// KIR3DL3 /// KIR3DL3 /// KIR3DS1 (11738374_at) / Fold change /veh KIR2DL2 /// KIR2DL4 /// KIR2DL5A /// KIR2DL5B /// KIR2DS1 /// KIR2DS2 /// KIR2DS3 /// KIR2DS4 /// KIR3DL3 /// KIR3DL3 /// KIR3DS1 (11738374_at) / RFU C1QL1 (11718748_at) / Fold change /veh C1QL1 (11718748_at) / RFU TMPRSS4 (11747572_a_at) / Fold change /veh TMPRSS4 (11747572_a_at) / RFU HAMP (11756126_x_at) / Fold change /veh HAMP (11756126_x_at) / RFU RNFT2 (11725882_a_at) / Fold change /veh RNFT2 (11725882_a_at) / RFU NR4A2 (11747474_a_at) / Fold change /veh NR4A2 (11747474_a_at) / RFU ABCC12 (11746883_a_at) / Fold change /veh ABCC12 (11746883_a_at) / RFU TMEM136 (11760407_x_at) / Fold change /veh TMEM136 (11760407_x_at) / RFU CLDN22 /// WWC2 (11732394_at) / Fold change /veh CLDN22 /// WWC2 (11732394_at) / RFU HLA-DPB1 (11760878_x_at) / Fold change /veh HLA-DPB1 (11760878_x_at) / RFU SPINT1 (11716480_a_at) / Fold change /veh SPINT1 (11716480_a_at) / RFU GAP43 (11754022_s_at) / Fold change /veh GAP43 (11754022_s_at) / RFU A4GNT (11735810_at) / Fold change /veh A4GNT (11735810_at) / RFU PRB3 (11715151_x_at) / Fold change /veh PRB3 (11715151_x_at) / RFU TUBB4B (11761932_at) / Fold change /veh TUBB4B (11761932_at) / RFU CAPN14 (11732068_a_at) / Fold change /veh CAPN14 (11732068_a_at) / RFU TMCC2 (11721928_a_at) / Fold change /veh TMCC2 (11721928_a_at) / RFU IRGQ (11745062_a_at) / Fold change /veh IRGQ (11745062_a_at) / RFU FAM174B (11720279_a_at) / Fold change /veh FAM174B (11720279_a_at) / RFU TMPRSS4 (11748680_a_at) / Fold change /veh TMPRSS4 (11748680_a_at) / RFU FAM212B (11763350_a_at) / Fold change /veh FAM212B (11763350_a_at) / RFU PLEKHG5 (11743358_a_at) / Fold change /veh PLEKHG5 (11743358_a_at) / RFU ZSCAN30 (11745921_a_at) / Fold change /veh ZSCAN30 (11745921_a_at) / RFU CMKLR1 (11741424_a_at) / Fold change /veh CMKLR1 (11741424_a_at) / RFU LOC101060620 /// MAPK8IP1 (11723275_at) / Fold change /veh LOC101060620 /// MAPK8IP1 (11723275_at) / RFU SPTSSB (11747773_x_at) / Fold change /veh SPTSSB (11747773_x_at) / RFU PRSS12 (11739890_at) / Fold change /veh PRSS12 (11739890_at) / RFU BIN1 (11741810_x_at) / Fold change /veh BIN1 (11741810_x_at) / RFU WNT11 (11732464_a_at) / Fold change /veh WNT11 (11732464_a_at) / RFU C10orf10 (11716521_a_at) / Fold change /veh C10orf10 (11716521_a_at) / RFU C5orf56 (11738089_at) / Fold change /veh C5orf56 (11738089_at) / RFU CYB561 (11721691_x_at) / Fold change /veh CYB561 (11721691_x_at) / RFU ANKRD19P (11752326_a_at) / Fold change /veh ANKRD19P (11752326_a_at) / RFU OR2T12 /// OR2T33 /// OR2T8 (11738714_s_at) / Fold change /veh OR2T12 /// OR2T33 /// OR2T8 (11738714_s_at) / RFU VCAN (11748164_a_at) / Fold change /veh VCAN (11748164_a_at) / RFU JSRP1 (11732532_at) / Fold change /veh JSRP1 (11732532_at) / RFU KRTAP10-11 (11738290_x_at) / Fold change /veh KRTAP10-11 (11738290_x_at) / RFU MYO3A (11730013_a_at) / Fold change /veh MYO3A (11730013_a_at) / RFU EBF3 (11725865_a_at) / Fold change /veh EBF3 (11725865_a_at) / RFU CAMK2N1 (11719241_x_at) / Fold change /veh CAMK2N1 (11719241_x_at) / RFU C5orf56 (11738088_a_at) / Fold change /veh C5orf56 (11738088_a_at) / RFU OLFML3 (11715873_a_at) / Fold change /veh OLFML3 (11715873_a_at) / RFU LOC100653217 /// NTM (11731650_a_at) / Fold change /veh LOC100653217 /// NTM (11731650_a_at) / RFU MAPK11 (11762145_a_at) / Fold change /veh MAPK11 (11762145_a_at) / RFU FIZ1 (11724087_x_at) / Fold change /veh FIZ1 (11724087_x_at) / RFU OASL (11726364_x_at) / Fold change /veh OASL (11726364_x_at) / RFU SOX15 (11748057_x_at) / Fold change /veh SOX15 (11748057_x_at) / RFU CD79A (11719716_a_at) / Fold change /veh CD79A (11719716_a_at) / RFU HIST1H1D (11736915_at) / Fold change /veh HIST1H1D (11736915_at) / RFU CASKIN2 (11723855_a_at) / Fold change /veh CASKIN2 (11723855_a_at) / RFU LOC730098 (11760151_x_at) / Fold change /veh LOC730098 (11760151_x_at) / RFU OR4N2 (11742367_at) / Fold change /veh OR4N2 (11742367_at) / RFU PRRT2 (11749266_a_at) / Fold change /veh PRRT2 (11749266_a_at) / RFU SNX32 (11753110_a_at) / Fold change /veh SNX32 (11753110_a_at) / RFU CDHR5 (11726645_a_at) / Fold change /veh CDHR5 (11726645_a_at) / RFU RCAN1 (11760418_a_at) / Fold change /veh RCAN1 (11760418_a_at) / RFU FAM167A (11723789_a_at) / Fold change /veh FAM167A (11723789_a_at) / RFU FAM26E (11764081_at) / Fold change /veh FAM26E (11764081_at) / RFU ISYNA1 (11749810_s_at) / Fold change /veh ISYNA1 (11749810_s_at) / RFU ACY1 (11761880_at) / Fold change /veh ACY1 (11761880_at) / RFU 11764098_at / Fold change /veh 11764098_at / RFU SAMD14 (11745864_x_at) / Fold change /veh SAMD14 (11745864_x_at) / RFU NPB (11741838_a_at) / Fold change /veh NPB (11741838_a_at) / RFU TMPRSS6 (11731388_a_at) / Fold change /veh TMPRSS6 (11731388_a_at) / RFU KRTAP10-2 (11738614_at) / Fold change /veh KRTAP10-2 (11738614_at) / RFU ARHGAP8 /// PRR5-ARHGAP8 (11727945_x_at) / Fold change /veh ARHGAP8 /// PRR5-ARHGAP8 (11727945_x_at) / RFU KRTAP5-7 /// NADSYN1 (11734609_at) / Fold change /veh KRTAP5-7 /// NADSYN1 (11734609_at) / RFU RASL12 (11751679_a_at) / Fold change /veh RASL12 (11751679_a_at) / RFU CDKN2B (11736163_a_at) / Fold change /veh CDKN2B (11736163_a_at) / RFU PRF1 (11729649_at) / Fold change /veh PRF1 (11729649_at) / RFU, ZNF638 /// ZNF638-IT1 / Fold change vs veh, ZNF638 /// ZNF638-IT1 / RFU, PANK3 / Fold change vs veh, PANK3 / RFU, SH3YL1 / Fold change vs veh, SH3YL1 / RFU, ZEB2 / Fold change vs veh, ZEB2 / RFU, NRIP1 / Fold change vs veh, NRIP1 / RFU, PTTG1IP / Fold change vs veh, PTTG1IP / RFU, CAPN2 / Fold change vs veh, CAPN2 / RFU, MED14 / Fold change vs veh, MED14 / RFU, SNORA58 / Fold change vs veh, SNORA58 / RFU, C1orf63 / Fold change vs veh, C1orf63 / RFU, LRRFIP1 / Fold change vs veh, LRRFIP1 / RFU, NDUFAF7 / Fold change vs veh, NDUFAF7 / RFU, SLC12A2 / Fold change vs veh, SLC12A2 / RFU, IBTK / Fold change vs veh, IBTK / RFU, ESF1 / Fold change vs veh, ESF1 / Fold change vs veh, TMEM50B / RFU, TAOK1 / Fold change vs veh, TAOK1 / RFU, ACBD3 / Fold change vs veh, ACBD3 / RFU, TMA16 / Fold change vs veh, TMA16 / RFU, RWDD3 / Fold change vs veh, RWDD3 / RFU, BCAT1 / Fold change vs veh, BCAT1 / RFU, EDEM3 / Fold change vs veh, EDEM3 / RFU, TMEM33 / Fold change vs veh, TMEM33 / RFU, WDR75 / Fold change vs veh, WDR75 / RFU, AHCTF1 / Fold change vs veh, AHCTF1 / RFU, TFRC / Fold change vs veh, TFRC / RFU, ZDHHC17 / Fold change vs veh, ZDHHC17 / RFU, NOM1 / Fold change vs veh, NOM1 / RFU, ARL8B / Fold change vs veh, ARL8B / RFU, ZBTB11 / Fold change vs veh, ZBTB11 / RFU, TAMM41 / Fold change vs veh, TAMM41 / RFU, KIAA1704 /// LOC100996395 / Fold change vs veh, KIAA1704 /// LOC100996395 / RFU, ING1 / Fold change vs veh, ING1 / RFU, TRMT61B / Fold change vs veh, TRMT61B / RFU, FUBP3 / Fold change vs veh, FUBP3 / RFU, TP53 / Fold change vs veh, TP53 / RFU, TNKS2 / Fold change vs veh, TNKS2 / RFU, ZFP14 / Fold change vs veh, ZFP14 / RFU, ACTR2 / Fold change vs veh, ACTR2 / RFU, PPP3R1 / Fold change vs veh, PPP3R1 / RFU, PIK3R1 / Fold change vs veh, PIK3R1 / RFU, HNRNPA1 / Fold change vs veh, HNRNPA1 / RFU, RNF170 / Fold change vs veh, RNF170 / RFU, ZNF28 / Fold change vs veh, ZNF28 / RFU, RNGTT / Fold change vs veh, RNGTT / RFU, OGT / Fold change vs veh, OGT / RFU, BRD1 / Fold change vs veh, BRD1 / RFU, MARS / Fold change vs veh, MARS / RFU, ZNF655 / Fold change vs veh, ZNF655 / RFU, FAHD1 / Fold change vs veh, FAHD1 / RFU, BDP1 / Fold change vs veh, BDP1 / RFU, LRRCC1 / Fold change vs veh, LRRCC1 / RFU, ARID1A / Fold change vs veh, ARID1A / RFU, ZNF146 / Fold change vs veh, ZNF146 / RFU, ZNF330 / Fold change vs veh, ZNF330 / RFU, GPN3 / Fold change vs veh, GPN3 / RFU, C9orf123 / Fold change vs veh, C9orf123 / RFU, N4BP2L2 / Fold change vs veh, N4BP2L2 / RFU, ARFIP1 / Fold change vs veh, ARFIP1 / RFU, FAM179B / Fold change vs veh, FAM179B / RFU, BCL10 / Fold change vs veh, BCL10 / RFU, UHRF1BP1L / Fold change vs veh, UHRF1BP1L / RFU, BET1 / Fold change vs veh, BET1 / RFU, CNOT2 / Fold change vs veh, CNOT2 / RFU, ZNF268 / Fold change vs veh, ZNF268 / Fold change vs veh, ZNF507 / RFU, DGCR2 / Fold change vs veh, DGCR2 / RFU, WDSUB1 / Fold change vs veh, WDSUB1 / Fold change vs veh, HSP90B1 /// MIR3652 / RFU, ADSS / Fold change vs veh, ADSS / RFU, GK / Fold change vs veh, GK / RFU, ZNF148 / Fold change vs veh, ZNF148 / RFU, TAF9 / Fold change vs veh, TAF9 / RFU, SLC1A5 / Fold change vs veh, SLC1A5 / RFU, SLMO2 / Fold change vs veh, SLMO2 / RFU, ABCC4 / Fold change vs veh, ABCC4 / RFU, LOC101060439 /// RAP1B / Fold change vs veh, LOC101060439 /// RAP1B / RFU, RFX7 / Fold change vs veh, RFX7 / RFU, GTPBP10 / Fold change vs veh, GTPBP10 / RFU, CNEP1R1 / Fold change vs veh, CNEP1R1 / RFU, BIVM-ERCC5 /// ERCC5 / Fold change vs veh, BIVM-ERCC5 /// ERCC5 / RFU, ILF3 / Fold change vs veh, ILF3 / RFU 11762660_at / Fold change /veh 11762660_at / RFU VCAN (11757783_s_at) / Fold change /veh VCAN (11757783_s_at) / RFU DDX43 (11728927_at) / Fold change /veh DDX43 (11728927_at) / RFU KRT8 (11758188_x_at) / Fold change /veh KRT8 (11758188_x_at) / RFU NKD1 (11759106_at) / Fold change /veh NKD1 (11759106_at) / RFU SRD5A1 (11742802_a_at) / Fold change /veh SRD5A1 (11742802_a_at) / RFU TPSAB1 /// TPSB2 (11721975_s_at) / Fold change /veh TPSAB1 /// TPSB2 (11721975_s_at) / RFU GSTM3 (11746129_a_at) / Fold change /veh GSTM3 (11746129_a_at) / RFU IL23R (11737362_x_at) / Fold change /veh IL23R (11737362_x_at) / RFU TMEM51 (11727254_a_at) / Fold change /veh TMEM51 (11727254_a_at) / RFU PIWIL2 (11732686_x_at) / Fold change /veh PIWIL2 (11732686_x_at) / RFU ORM1 (11744905_x_at) / Fold change /veh ORM1 (11744905_x_at) / RFU CCDC152 (11743942_at) / Fold change /veh CCDC152 (11743942_at) / RFU ECM1 (11717891_a_at) / Fold change /veh ECM1 (11717891_a_at) / RFU IL23R (11748794_a_at) / Fold change /veh IL23R (11748794_a_at) / RFU TNFAIP8L3 (11732012_x_at) / Fold change /veh TNFAIP8L3 (11732012_x_at) / RFU MBOAT4 (11741988_at) / Fold change /veh MBOAT4 (11741988_at) / RFU 11764193_at / Fold change /veh 11764193_at / RFU TMEM53 (11763286_at) / Fold change /veh TMEM53 (11763286_at) / RFU MAGEB2 (11727129_at) / Fold change /veh MAGEB2 (11727129_at) / RFU TMEM200A (11744735_a_at) / Fold change /veh TMEM200A (11744735_a_at) / RFU CCDC152 (11751479_a_at) / Fold change /veh CCDC152 (11751479_a_at) / RFU FAM211A (11726209_a_at) / Fold change /veh FAM211A (11726209_a_at) / RFU RGS16 (11746705_a_at) / Fold change /veh RGS16 (11746705_a_at) / RFU VCAN (11755009_s_at) / Fold change /veh VCAN (11755009_s_at) / RFU RHOB (11743442_s_at) / Fold change /veh RHOB (11743442_s_at) / RFU RGS16 (11720943_a_at) / Fold change /veh RGS16 (11720943_a_at) / RFU RGS16 (11720944_at) / Fold change /veh RGS16 (11720944_at) / RFU, VPS4B / Fold change vs veh, VPS4B / RFU, CREB1 / Fold change vs veh, CREB1 / RFU, DNAJC13 / Fold change vs veh, DNAJC13 / RFU, GNAQ / Fold change vs veh, GNAQ / RFU, CDK5R1 / Fold change vs veh, CDK5R1 / RFU, ZRANB3 / Fold change vs veh, ZRANB3 / RFU, CUL4A / Fold change vs veh, CUL4A / RFU, CCNY / Fold change vs veh, CCNY / RFU, UFL1 / Fold change vs veh, UFL1 / RFU, COG3 / Fold change vs veh, COG3 / RFU, DIAPH2 / Fold change vs veh, DIAPH2 / RFU, SKA2 / Fold change vs veh, SKA2 / RFU, AFF3 / Fold change vs veh, AFF3 / RFU, LMF1 / Fold change vs veh, LMF1 / RFU, IPO11 / Fold change vs veh, IPO11 / RFU, DFFB / Fold change vs veh, DFFB / RFU, FOXP1 / Fold change vs veh, FOXP1 / RFU, CARD8 / Fold change vs veh, CARD8 / RFU, STRN3 / Fold change vs veh, STRN3 / RFU, ADK / Fold change vs veh, ADK / RFU, RASSF2 / Fold change vs veh, RASSF2 / RFU, WIPF1 / Fold change vs veh, WIPF1 / RFU, LARP1B / Fold change vs veh, LARP1B / RFU, RASA1 / Fold change vs veh, RASA1 / RFU, RB1 / Fold change vs veh, RB1 / RFU, PPFIA1 / Fold change vs veh, PPFIA1 / RFU, MAT2A / Fold change vs veh, MAT2A / RFU, CCT5 / Fold change vs veh, CCT5 / RFU, WDR92 / Fold change vs veh, WDR92 / RFU, CUX1 / Fold change vs veh, CUX1 / RFU, TTC7A / Fold change vs veh, TTC7A / RFU, TMEM135 / Fold change vs veh, TMEM135 / RFU, DEPTOR / Fold change vs veh, DEPTOR / RFU, CPM / Fold change vs veh, CPM / RFU, DNAJB6 / Fold change vs veh, DNAJB6 / RFU, CACNA2D3 / Fold change vs veh, CACNA2D3 / RFU, DTX4 / Fold change vs veh, DTX4 / RFU, TFCP2 / Fold change vs veh, TFCP2 / RFU, GMCL1 /// GMCL1P1 / Fold change vs veh, GMCL1 /// GMCL1P1 / RFU, AEBP2 / Fold change vs veh, AEBP2 / RFU, SNHG1 /// SNORD22 /// SNORD25 /// SNORD26 /// SNORD27 /// SNORD28 /// SNORD29 /// SNORD31 / Fold change vs veh, SNHG1 /// SNORD22 /// SNORD25 /// SNORD26 /// SNORD27 /// SNORD28 /// SNORD29 /// SNORD31 / Fold change (Aza/veh), C12orf56 (ProbeSet 11735607_a_at) / Fold change (ACY-1035/veh), C12orf56 (ProbeSet 11735607_a_at) / Fold change (Aza/veh), FGFR1OP (ProbeSet 11751329_s_at) / Fold change (ACY-1035/veh), FGFR1OP (ProbeSet 11751329_s_at) / Fold change (Aza/veh), VPS36 (ProbeSet 11739960_a_at) / Fold change (ACY-1035/veh), VPS36 (ProbeSet 11739960_a_at) / RFU SYPL1 (11715823_x_at) / Fold change /veh SYPL1 (11715823_x_at) / RFU IGFBP7 (11715501_s_at) / Fold change /veh IGFBP7 (11715501_s_at) / RFU REEP3 (11722064_at) / Fold change /veh REEP3 (11722064_at) / RFU IGLL1 (11728026_x_at) / Fold change /veh IGLL1 (11728026_x_at): dose or concentration left out as unconfirmed
Settings: ProbeSet 11721559_s_at; LIST B

In the case of `Nc1ccc(-c2cccs2)cc1NC(=O)c1ccc2c(c1)cc(C1CC1)n2CCN1CCOCC1` [ACY-1035], the “Fold change vs veh, ZNF638 /// ZNF638-IT1” value is reported as 0.85.
